Data on eleven compounds can be found in patent publication US20080241919A1, “Defined media for pluripotent stem cell culture” (The Burnham Institute of Medical Research, priority 2003, published 2008).

The test system of assay [1] is human embryonic stem cells (hESCs). Briefly: Other growth factors in place of bFGF for undifferentiated growth of hESCs. It is filed as cell-based. The conditions noted are these: feeder- and serum-free conditions. The method, then: All the growth factors were dissolved in a PBS buffer that contained 0.5% BSA, 1 mM DTT (Dithiothreitol) and 10% glyceral as a 10 μg/ml (500×) stock solution and stored in aliquots at −80° C. These factors were added individually to the hESC cultures at a concentration of 20 ng/ml, in the absence of bFGF or in the presence of a low concentration of bFGF (4 ng/ml). Seven days after seeding undifferentiated hESCs on laminin/collagen-coated plates, the cultures were examined.

For assay [2] the test system is unchanged. Briefly: Medium component requirement assay, hESCs on laminin/collagen-coated plates for seven days. The assay is classed as cell-based. The method, then:
(a) Media containing bFGF, insulin, and ascorbic acid sustain the healthy undifferentiated growth of hESCs on laminin/collagen-coated plates. Insulin (20 μg/ml), transferrin (8 μg/ml), albumin (for example, the commercial product known as AlbuMAXI) (10 mg/ml), and ascorbic acid (50 μg/ml) were added to a base medium that consisted of 100% DMEM/F-12 with 20 ng/ml bFGF, 2 mM L-alanyl-L-glutamine, 1×MEM essential amino acids solution, 1×MEM non-essential amino acids solution, and 100 μM β-mercaptoethanol. The degree of differentiation was judged by morphology of the colonies and Oct-4 expression. […] (red). […] However, if ascorbic acid was omitted from the media [D, H, L] […] White arrows in all panels delineate the edge of an hESC colony. The area delineated by the white square in [A], [E], and [I] indicates the approximate area that is visualized at higher magnification in [B, C], [F, G], and [J, K], respectively. [C], [G], and [K] is the image in [B], [F], and [J], respectively, merged with DAPI staining of their nuclei (blue).
(b) When either bFGF or insulin was omitted from the media, hESC colonies appeared to differentiate completely under the feeder- and serum-free conditions. […] The distinct growth effects of insulin and bFGF were further accentuated in media lacking ascorbic acid [C, F] (“NO Ascorbic Acid”). In the absence of ascorbic acid and in media that contained only insulin as the growth factor [C] (phase) (“NO Ascorbic Acid”), slower growth of the differentiated hESCs was observed (compare [A, B] to [C]). In ascorbic-acid-lacking media that contained bFGF as the only growth factor [F] […] White arrows in all panels delineate the edge of hESC colonies.
Having determined that substantial numbers of undifferentiated hESCs could be maintained over long periods in feeder-free environments using the bFGF-supplemented media described above, the necessity of other components in the medium to maintain hESCs in an undifferentiated state was next examined. “Knockout Serum Replacement” contains insulin, transferrin, ascorbic acid, amino acids, and AlbuMAX (a chromatographically-purified lipid-rich bovine serum albumin [BSA] with low IgG content, but nevertheless a xeno-derived product). Accordingly, whether insulin, transferrin, BSA, and ascorbic acid were essential components was assessed, in combination with bFGF, for maintaining hESCs in an undifferentiated state. The serum replacement components insulin (20 μg/ml), transferrin (8 μg/ml), albumin (AlbuMAX) (10 mg/ml), and ascorbic acid (50 μg/ml) were added to a base medium that consisted of DMEM/F-12 or KO-DMEM with bFGF (20 ng/ml), L-alanyl-L-glutamine or L-glutamine (2 mM), MEM essential amino acids solution (1×), MEM nonessential amino acids solution (1×), and β-mercaptoethanol (100 μM). To assay for the differentiation-forestalling activity of each of these components, undifferentiated hESCs were seeded on laminin/collagen-coated plates and cultivated for seven days in media containing one or more of the individual components. The degree of differentiation of the colonies was judged by defining morphology and Oct-4 expression.
When either bFGF or insulin was omitted from the media, more than 90% of the colonies appeared to differentiate completely within the first passage, as indicated by their differentiated morphology (FIG. 2b, A,B,D,E), their complete loss of Oct-4 expression, and their expression of the cell surface marker SSEA-1 (FIG. 2c, B,C). […] The different effects of insulin and bFGF were accentuated further in media lacking ascorbic acid. In the absence of ascorbic acid and in media containing only insulin, the growth of differentiated hESCs was simply slower (FIG. 2b, C). […] Although albumin and transferrin are not crucial components for sustaining the undifferentiated growth of hESCs, they might abet survival or maintenance of a normal colony shape.

The test system of assay [3] is acetylated histone H3 and H4, Myc, Tip60 HAT, p300 HAT. Nature of the assay: Chromatin state immunofluorescence (acetylated H3/H4, Myc, Tip60, p300) in hESCs. It is filed as cell-based, human. The conditions noted are these: named factor omitted from the media. The text has this: (c) Presence of both bFGF and insulin is essential for maintenance of an acetylated transcriptionally active chromatin state in undifferentiated hESCs. When either bFGF or insulin is omitted from the media, the differentiated hESC colonies express the differentiation-associated cell surface marker SSEA-1 [B, C] […] (green), Myc [E, F] (red), and histone acetyltransferase (HAT) Tip60 [I, K] (green) and p300 [J, K] […] All cells are indicated by DAPI staining of their nuclei (blue).
To discover the minimal essential conditions needed to support the long-term growth of undifferentiated hESCs, morphological analysis was used to assess the developmental stage of hESCs at different times. For these analyses hESCs were grown in a 6- or 12-well plate to maturation (day 6 or 7 after seeding) before being fixed and visualized under a phase contrast microscope. Cellular immunofluorescence was also employed to assess the state of differentiation of hESCs. […] The state of differentiation of hESC was further assessed by generating (via lentiviral-mediated transduction) hESCs carrying a reporter gene (enhanced green fluorescence protein (EGFP)) under control of the Oct-4 promoter. Using these transfected hESCs (carrying Oct-4 driven EGFP), the undifferentiated state of hESCs can be visualized by green fluorescence (indicating Oct-4 expression). […]

Assay [4] deals with human embryonic stem cells (hESCs). Nature of the assay: Growth of hESCs on purified matrix protein-coated plates. It is filed as cell-based. As to conditions: hESC media containing 20 ng/ml bFGF. From the text: (e) Characterization of hESCs maintained on matrix protein-coated plates in the defined hESC media - Determining the Minimal Essential Matrix. hESCs maintained on a laminin-coated plate have a classic undifferentiated morphology [A] (phase image) and express Oct-4 [B, C] (red). [C] is the image in [B] merged with DAPI staining of their nuclei (blue). White arrows delineate the edge of an hESC colony. The area delineated by the white square in [A] indicates the approximate area that is visualized at higher magnification in [B, C]. […] Red arrows in [D-F] indicate that the differentiated colony consisted of dense centers containing cyst-like structures and necrotic cells. Laminin, therefore, appeared to be the minimal sufficient matrix protein.
Having established that bFGF, insulin, and ascorbic acid were important minimal components of a feeder-free culture system, the growth of hESCs on purified matrix proteins, including human laminin-, fibronectin-, or collagen IV-coated plates in hESC media containing 20 ng/ml bFGF, was further examined.

Consider IGF-II: insulin-like growth factor-II, for which, in assay [1], the “ability to replace bFGF in supporting undifferentiated growth of hESCs” value was “can not replace bFGF”.

Regarding “insulin: human recombinant insulin from Sigma, medium component”, the “cell morphology in differentiated colonies” value in assay [2] (media that contained only the named growth factor) is given as “Large round cells”. Besides, in assay [3], the “immunoreactivity to acetylated H3 and H4, Myc, Tip60 HAT, nuclear focal localization of p300 HAT” value is on record as “undetectable or weak immunoreactivity”.

Take PDGF: platelet-derived growth factor-AB: the “ability to replace bFGF in supporting undifferentiated growth of hESCs” value in assay [1] is listed as “can not replace bFGF”.

For the compound VEGF, in assay [1], the “ability to replace bFGF in supporting undifferentiated growth of hESCs” value is reported as “can not replace bFGF”.

As for aFGF: acidic fibroblast growth factor, the “ability to replace bFGF in supporting undifferentiated growth of hESCs” value in assay [1] is reported as “can not replace bFGF”.

As to laminin, in assay [4], the “hESC colonies remaining undifferentiated (morphology, Oct-4)” value is given as “more than 80%”.

As for IGF-I: insulin-like growth factor-I, the “ability to replace bFGF in supporting undifferentiated growth of hESCs” value in assay [1] was “can not replace bFGF”.

For the compound “albumin: chromatographically-purified lipid-rich bovine serum albumin with low IgG content”, in assay [2] (absence of albumin), the “shape of hESC colonies” value was “more flat and spread out”.

In the case of `O=C1O[C@H]([C@@H](O)CO)C(O)=C1O` [ascorbic acid, reference compound], the “cyst-like structures and necrotic cells within dense cores of differentiated hESC colonies” value in assay [2] (absence of ascorbic acid, media containing only bFGF) is “became more severe”. Besides, the “growth of differentiated hESCs” value in assay [2] (absence of ascorbic acid, media containing only insulin) is on record as “simply slower”. Further, the “appearance of hESC colonies” value in assay [2] (ascorbic acid omitted from the media) is “very dense at their core and necrotic”.

In the case of “EGF: epidermal growth factor (NSDSECPLSHDGYCLHDGVCMYIEALDKYACNCVVGYIGERCQYRDLKWWELR; Epidermal growth factor; UniProt P01133 971-1023, looked up)”, the “ability to replace bFGF in supporting undifferentiated growth of hESCs” value in assay [1] is “can not replace bFGF”.

With “transferrin: serum replacement component added at 8 μg/ml”, in assay [2] (absence of transferrin), the “number of hESC colonies” value is reported as “fewer total hESC colonies”.
